Results reported in patent US20120226031A1, “PALMARUMYCIN BASED INHIBITORS OF THIOREDOXIN AND METHODS OF USING SAME” (ARIZONA BOARD OF REGENTS, ACTING ON BEHALF OF THE …, priority 2005, published 2012).
Like-named read-outs stand apart in the source and are kept apart here.

Tests used:
[1] = test system: MCF-7 human breast cancer cells; test: MCF-7 breast cancer cell growth inhibition; assay type: cell-based; settings: Homo sapiens, MCF7
[2] = molecular target: T1, cellular thioredoxin reductase (Homo sapiens, UniProt Q16881); test: Inhibition of cellular thioredoxin reductase in MCF-7 cells grown in 1 μM Se; assay type: cell-based
T1 sequence (Q16881 1-649): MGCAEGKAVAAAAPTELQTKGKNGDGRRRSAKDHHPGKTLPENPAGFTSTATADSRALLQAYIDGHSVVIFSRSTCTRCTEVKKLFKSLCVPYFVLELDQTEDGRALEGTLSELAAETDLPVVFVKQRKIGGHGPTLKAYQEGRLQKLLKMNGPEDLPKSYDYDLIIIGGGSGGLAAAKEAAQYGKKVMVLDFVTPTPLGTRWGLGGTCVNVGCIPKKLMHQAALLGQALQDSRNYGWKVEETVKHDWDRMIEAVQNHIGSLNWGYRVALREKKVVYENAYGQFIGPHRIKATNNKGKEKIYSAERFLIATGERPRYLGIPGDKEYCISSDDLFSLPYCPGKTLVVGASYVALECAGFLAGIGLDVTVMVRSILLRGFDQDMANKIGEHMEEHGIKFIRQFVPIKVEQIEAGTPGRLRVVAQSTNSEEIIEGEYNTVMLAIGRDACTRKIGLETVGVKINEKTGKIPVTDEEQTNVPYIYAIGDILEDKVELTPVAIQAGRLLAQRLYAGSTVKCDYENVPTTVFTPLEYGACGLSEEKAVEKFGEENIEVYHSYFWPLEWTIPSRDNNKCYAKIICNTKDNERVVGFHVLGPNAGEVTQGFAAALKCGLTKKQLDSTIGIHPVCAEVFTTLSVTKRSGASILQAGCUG
Procedure: FIG. 3. Inhibition of cellular thioredoxin reductase by PX-916. MCF-7 human breast cancer cells grown in medium containing 1 μM Se for 7 days were treated with PX-916 and total cellular thioredoxin reductase activity measured. A. Time course of the inhibition of the thioredoxin reductase on exposure to 1 μM PX-916. […] In both cases values are the mean of 3 separate determinations and bars are S.E. P≦0.04 or **p≦0.01. C. Inhibition of MCF-7 tumor thioredoxin reductase by PX-916. MCF-7 human breast cancer xenografts were grown in female scid mice implanted with 17-β-estradiol 60 day slow-release pellets until they were ˜300 mm^3. The mice were administered a single dose of PX-916 of 25 mg/kg i.v. and tumors harvested at various times. Thioredoxin reductase activity was measured in tumor homogenates. Values are the mean of 3 mice at each time point and bars are SE. **p<0.01 compared to pretreatment value.
Cell growth inhibition of MCF-7 human breast cancer cells by palmarumycin, PX-916 and PX-960 occurred at similar concentration of 1 to 3 μM (Table 2). MCF-7 human breast cancer cells were grown in medium containing 1 μM selenium (Se) for 7 days which increased cellular thioredoxin reductase activity by about 5 fold as previously reported. […] Thus, inhibition of purified human TR, MCF-7 cellular TR and cell growth inhibition of MCF-7 cells by PX-916 occurred at about the same concentrations.

HIF-1α = test: Tumor HIF-1α immunohistochemistry in MCF-7 xenografts; assay type: in vivo, mouse; settings: five daily doses of 25 mg/kg, 24 hours after last dose
Procedure: FIG. 5. Inhibition of tumor HIF-1α, VEGF and thioredoxin reductase by repeated administration of PX-916. Female scid mice were implanted 1d previously with a 90-d 17β-estradiol slow release pellet were inoculated s.c. with 10^7 MCF-7 human breast cancer cells. When the tumors were 300 mm^3, vehicle or 25 mg/kg/d PX-916 was given i.v. for five doses. Twenty four hours later, the tumors were removed and stained by immunohistochemistry for HIF-1α and VEGF (A) or assayed for thioredoxin reductase activity (B). Columns mean of four mice, SE. P≦0.05.
Levels of the HIF-1α transcription factor and its downstream target VEGF are increased by thioredoxin-1 expression. We examined the effect of PX-916 administration on tumor HIF-1α and VEGF levels (FIG. 5A). Twenty-four hours after the last dose of five daily doses of PX-916 of 25 mg/kg, there was a decrease in MCF-7 xenograft staining for both HIF-1α and VEGF. At the same time, levels of tumor thioredoxin reductase activity were decreased by 75% (FIG. 5B).

[3] = Toxicity in female scid mice; assay type: in vivo, mouse
[4] = Stability in ethanol at room temperature; assay type: physicochemical
Text: (§1) PX-916 was stable as a stock solution in ethanol at room temperature with a half life of >5 days. […] Therefore, for in vitro studies PX-916 was used as a stock solution in ethanol, and for in vivo studies made fresh in pH 4.0 buffer vehicle.

[5] = pH dependent stability in water / 0.1M sodium phosphate buffer; assay type: physicochemical
Procedure: as §1
Further palmarumycin analogs were synthesized and tested. The following analogs were synthesized: eee269-II, eee86-III, eee263-II and eee273-II. The stability of the analogs was measured in various solutions.

[6] = Plasma levels in mice after i.v. administration; assay type: in vivo, mouse; set-up: dose or concentration left out as unconfirmed; settings: PX-916 i.v. to mice, 5 minutes after administration
Procedure: Two metabolite peaks could be seen at 5 minutes, but were undetectable by 30 minutes.

[7] = 25 mg/kg i.v. x5, 24 hr after last dose
[8] = 25 mg/kg iv QD × 5, 24 hr after last dose, mean ± SE

## NCC(=O)Oc1ccc2c3c(cccc13)OC1(C=CC(=O)c3c(O)cccc31)O2 (stereo not drawn) [PX-916, O-glycyl naphthoquinone spiroketal]
[1]; Table 1, read-out: MCF-7 growth inhibition IC50
  IC50: 3.1 µM
[1]; Table 2, read-out: Inhibition of MCF-7 breast cancer cell growth IC50
  IC50: 3.1 µM
[1]; read-out: IC50 MCF-7 cell growth
  IC50: 3.1 µM
[2]; MCF-7 cells exposed to 1 μM
  time of maximum inhibition of cellular TR: 24 h
[2]; MCF-7 cells, 17 hours exposure
  concentration of maximum inhibition of cellular TR: 0.5 µM
HIF-1α
  MCF-7 xenograft staining for HIF-1α: decrease
[3]; [7]
  major toxicities observed: neutropenia and thrombocytopenia
  plasma liver enzymes: no observable increase
  weight loss: no significant weight loss
[3]; [8]
  ALT: 39.8 ± 12.8 U/I
  AST: 166.9 ± 29.8 U/I
  Hb: 14.9 ± 0.4 g/dL
  LY: 0.3 ± 0.1 K/μl
  MO: 005 ± 0.01 K/μl
  NE: 0.9 ± 0.3 K/μl
  PLT: 436 ± 142 K/μl
  RBC: 8.9 ± 0.4 M/μl
  WB: 1.3 ± 0.6 K/μl
  Δbodywt: -0.6 ± 0.3 g
[3]; 5 daily doses of 25 mg/kg i.v., female scid mice
  tolerability: tolerated
[3]; single i.v. dose of 50 mg/kg, female scid mice
  lethality: lethal
[4]; b145
  half life of stock solution in ethanol: > 120 h
[4]; ethanol, b120, read-out: half-life for conversion to PX-960 in ethanol
  half-life: > 120 h
[5]; 0.1M sodium phosphate buffer, pH 4.0, read-out: half life (converted)
  half-life: 37 h
[5]; 0.1M sodium phosphate buffer, pH 7.0, read-out: half life (converted)
  half-life: 1 h
[5]; 0.1M sodium phosphate buffer, pH 10.0, read-out: half life (converted)
  half-life: < 1 h
[5]; physiological pH
  half life of conversion to PX-960: 1 h
[5]; water, pH 4, room temperature, pH4, read-out: t1/2 in water (converted)
  half-life: 37 h
[5]; water, pH 7 and above, read-out: t1/2 in water (converted)
  half-life: < 1 h
[6]
  detection of PX-916 in plasma: could not be detected
